According to PubChem BioAssay (NCI):
Where “and” joins values, the source holds several entries; their conditions need not be identical. Identical values can stand only once.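 Five compound concentrations were applied to cells in 96-well plates for 48 hours; endpoints were derived by simple linear interpolation of the resulting dose-response curve. GI50: concentration for 50% inhibition of growth. TGI is the concentration that stops growth completely.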

Key:
Test in all cases: growth of human tumour cells (NCI), 48 h
HCT-116 colon = test system: HCT-116 colon
HL-60(TB) leukemia = test system: HL-60(TB) leukemia
KM12 colon = test system: KM12 colon
LOX IMVI melanoma = test system: LOX IMVI melanoma
M14 melanoma = test system: M14 melanoma
OVCAR-5 ovarian = test system: OVCAR-5 ovarian
SF-268 CNS = test system: SF-268 CNS
SNB-75 CNS = test system: SNB-75 CNS
UO-31 renal = test system: UO-31 renal
ACHN renal = test system: ACHN renal

| SMILES | GI50 (HCT-116 colon) [µM] | TGI (HCT-116 colon) | TGI (HL-60(TB) leukemia) [µM] | GI50 (KM12 colon) [µM] | TGI (KM12 colon) [µM] | GI50 (LOX IMVI melanoma) [µM] | TGI (LOX IMVI melanoma) | GI50 (M14 melanoma) [µM] | TGI (M14 melanoma) | GI50 (OVCAR-5 ovarian) [µM] | TGI (OVCAR-5 ovarian) [µM] | GI50 (SF-268 CNS) [µM] | TGI (SF-268 CNS) [µM] | TGI (SNB-75 CNS) [µM] | GI50 (UO-31 renal) [µM] | TGI (UO-31 renal) | TGI (ACHN renal) [µM] | GI50 (SNB-75 CNS) [µM] | GI50 (ACHN renal) [µM] | GI50 (HL-60(TB) leukemia) [µM] |
| --- | --- | --- | --- | --- | --- | --- | --- | --- | --- | --- | --- | --- | --- | --- | --- | --- | --- | --- | --- | --- |
| O=[N+]([O-])c1ccc(Sc2c3ccccc3nc3cc(Cl)ccc23)cc1 | > 100 | > 100 µM | > 100 | > 100 | > 100 | > 100 | > 100 µM | > 100 | > 100 µM | > 100 | > 100 | > 100 | > 100 | > 100 | > 100 | > 100 µM |  |  |  |  |
| NC(=S)NN/C=C(\C=Nc1ccccc1)[N+](=O)[O-] |  | > 100 µM | > 100 |  |  |  | > 100 µM |  | > 100 µM |  | > 100 |  | > 100 | > 100 |  |  | > 100 |  |  |  |
| CC(C)(C)c1cc(C=C(C#N)C#N)cc(C(C)(C)C)c1O |  | 1.03 µM and 3.81 µM | 2.48 |  |  | 0.375 | 3.92 µM and 10.8 µM | 0.533 | 12.1 µM and 10.7 µM | 0.402 |  | 0.475 | > 241 |  |  | 0.891 µM and 3.7 µM | 20.2 | 0.194 |  |  |
| CC(=O)OCC1OC(N2C(=O)C(=O)c3ccccc32)C(OC(C)=O)C(OC(C)=O)C1OC(C)=O (stereo unspecified) |  |  |  |  | > 100 |  | > 100 µM |  | > 100 µM |  |  |  | > 100 | > 100 |  | > 100 µM | > 100 |  |  |  |
| O=c1c2cc(Br)ccc2nc(CCl)n1-c1ccc(O)c([N+](=O)[O-])c1 |  |  | 49.5 |  | 39.1 |  | 36.2 µM |  | 50.2 µM |  | > 100 |  | 44 | 44 |  | 29.9 µM | 79.9 |  |  |  |
| CCOC(=O)C1SC(=Nc2ccc(Cl)cc2)N=C1C (stereo unspecified) |  | 30.2 µM | 55.9 |  | 36.1 |  | 32.5 µM |  |  |  | 39.3 |  | 34 | 44.7 |  | 33.7 µM | 49.7 |  |  |  |
| Oc1ccccc1-c1nn(CNc2ccccc2Cl)c(=S)o1 | 29.8 | > 100 µM |  | > 100 | > 100 | 18.9 | 35.2 µM | > 100 | > 100 µM | 37.2 | > 100 | > 100 | > 100 |  | > 100 | > 100 µM | 38.5 |  | 16.8 |  |
| CCCCCCCCCCCCCCCC[N+]1(C)CCOCC1 | 1.59 | 3.87 µM | 3.35 |  |  |  |  | 1.32 | 2.98 µM | 1.14 | 2.89 | 1.63 | 4.22 | 2.46 | 13.4 | 31.6 µM | 13.9 | 0.868 | 2.93 | 1.31 |
| Nc1ncnc2c1ncn2CC(O)CO (stereo unspecified) |  | > 100 µM | > 100 |  | > 100 |  | > 100 µM |  | > 100 µM |  |  |  | > 100 | > 100 |  | > 100 µM |  |  |  |  |
| N#CNC(N)=Nc1ccc(Cl)cc1 |  | > 100 µM |  |  | > 100 |  | > 100 µM |  | > 100 µM |  | > 100 |  | > 100 | > 100 |  | > 100 µM | > 100 |  |  |  |
| O=C(O)c1ccccc1/C=N/N=C1c2ccccc2-c2ccccc21 |  | > 100 µM | 80.8 |  | 58.7 |  | > 100 µM |  | > 100 µM |  | > 100 |  | 77.1 |  |  | > 100 µM | > 100 |  |  |  |
| CCOC(=O)NC(=O)c1cn(CCN2CCN(C(=O)CCCCCCCCCCC(=O)N3CCN(CCn4cc(C(=O)NC(=O)OCC)c(=O)[nH]c4=O)CC3)CC2)c(=O)[nH]c1=O |  | > 100 µM |  |  | > 100 |  | > 100 µM |  | > 100 µM |  | > 100 |  | > 100 | > 100 |  | > 100 µM | > 100 |  |  |  |
| Cc1ccc(NC(=O)c2cc(S(=O)(=O)N3C(=O)NC(=O)NS3(=O)=O)c(S)cc2Cl)cc1 | 30.3 | > 100 µM |  | 22.2 | 52.2 | 20.7 | 56.1 µM | 24.6 | 66.8 µM | 56.5 | > 100 | 38.1 | > 100 | > 100 | 27.8 | > 100 µM | 83.8 | 91.6 | 26.3 |  |
| N/N=C1\C(=O)N(CCc2ccccc2)C(=O)C1C(=O)NCCc1ccccc1 (stereo unspecified) |  | > 100 µM | > 100 |  | > 100 |  | > 100 µM |  | > 100 µM |  |  |  | > 100 | > 100 |  | > 100 µM | > 100 |  |  |  |
| O=C(O)[C@@H](Cc1ccc2ccccc2c1)NC(=O)n1c2ccccc2c2ccccc21 | 2.32 | 11.8 µM | 18.3 | 2.18 | 14.3 | 3.63 | 20 µM | 3.25 | 19.5 µM | 5.05 | > 100 | 3.77 | 36.2 |  | 5.18 | 45.5 µM | 93.6 |  | 4.83 | 3.3 |
| CN(C)C(=S)/N=c1\ssc(=S)n1Cc1ccncc1 |  | 47.8 µM |  |  | 16.8 |  | 39.9 µM |  | 62.9 µM |  | > 100 |  | > 100 | 58.5 |  | 88.5 µM | 93.1 |  |  |  |
| C[C@H]1CCCC(O)C(O)[C@@H]2C[C@H](O[Si](C)(C)C(C)(C)C)C[C@H]2[C@H](O[Si](C)(C)C(C)(C)C)C(O)C(O)C(=O)O1 (stereo partly specified) | 28.3 | > 100 µM |  | 37.5 | > 100 |  |  | 39.1 | > 100 µM | 31.8 | > 100 | 20 | > 100 | 18.1 | 42.2 | > 100 µM | 44.7 | 4.3 | 14.4 |  |
| COc1cnc2c(c1)C(=O)c1c-2n(CCCN2CCN(C)CC2)c(=O)c2cc([N+](=O)[O-])ccc12 |  |  | 0.372 | 2.11 | 7.8 | 0.18 | 0.396 µM | 0.131 | 0.37 µM | 22.1 | 46.5 | 0.206 | 1.64 | 2.95 |  |  |  | 1.55 |  | 0.168 |
| CC(=O)c1ccc(O)c(CN(C2CCCCC2)C2CCCCC2)c1O |  | > 100 µM |  |  | > 100 |  | > 100 µM |  | > 100 µM |  | > 100 |  | > 100 | > 100 |  | > 100 µM | > 100 |  |  |  |
